Measured values as given in patent publication US20240197666A1, “DITERPENOID COMPOUNDS THAT ACT ON PROTEIN KINASE C (PKC)” (K-Gen Therapeutics, Inc., priority 2021, published 2024).
Where two headings read alike, the source gives them in different places.

Key:
[1] = test system: HL-60 (Leukemia); assay: Proliferation of HL-60; type: cell-based; conditions: for IC50: Homo sapiens, HL-60, read-out: IC50 HL-60 (Leukemia)
Description: (§1) The diterpenoid compounds were tested in A549, a non-small cell lung cancer cell line harboring a K-Ras activating mutation. Briefly, A549 cells at a density of 1,000 cells/well were seeded in 96-well plates and incubated at 37° C. for 24 hours. A series of different concentrations of compound stocks (500×) were prepared by 3-fold serial dilution in DMSO. These compounds were further diluted in culture media and then added to cells so that the final DMSO concentration was not exceeding 0.25%. After 96 hours of incubation, 50 μL of CellTiter Glo reagent (Promega) was added to each well and luminescence was measured after 10 minutes using EnVision (PerkinElmer). Luminescence from cells treated with DMSO alone was set as Max and % of inhibition was calculated as follows: Inhibition %=(Max-Sample value)/Max×100. Data was analyzed using XL-fit software (ID Business Solutions Ltd.) and IC50, relative IC50, and % of top inhibition was calculated. Some of the compounds in this disclosure were very potent in blocking proliferation of A549 lung cancer cells at low nM range. In addition, potency of inhibiting A549 proliferation correlated well with its binding affinity to PKCs for this series of compounds. In other words, higher affinity binders had stronger inhibitory effects on A549 proliferation. This further support the notion that activation, rather than inhibition, of certain PKC isoforms is required to block proliferation of cancer cells, some of which may harbor K-Ras mutations. This is in sharp contrast to previous literature and common belief that inhibition of PKC is necessary to block cancer cell growth (Kang, 2014, New Journal of Science, 2014:1-36). Data presented here is in agreement with recent findings that many loss-of-function but not gain-of-function mutations of PKC isoforms have been identified in many human cancers (Antal et al., 2015, Cell, 160:489-502).
(§2) The compounds in this disclosure were tested for their potency in blocking proliferation of a few other cancer cells lines, including K-Ras mutant pancreatic cell lines Panc2.13 and KP-4, leukemia cell line HL-60, and lymphoma cell lines Namalwa and Mino. Similar procedures as in Example 67 were followed. Initial cell numbers seeded in 96-well plates were different for different cell lines: 3000 cells/well for Panc2.13; 800-1000 cells/well for KP-4; 5000 cells/well for HL-60; 5000-10000 cells/well for Namalwa and Mino. A ratio of (IC50 of K101)/(IC50 of compound) (data in parenthesis in Table 5) was used to normalize the compound potency from different assay batches to a common comparator K101.

[2] = test system: Namalwa (Lymphoma); assay: Proliferation of Namalwa; type: cell-based; conditions: for IC50: read-out: IC50 Namalwa (Lymphoma)
Description: as §1, §2

[3] = test system: A549 cell line; assay: Proliferation of A549 (CellTiter Glo); type: cell-based; conditions: read-out: IC50 μM (A549 Cell Line)
Description: as §1

[4] = test system: NFκB-driven transcription in HeLa-NFκB luciferase reporter cell line; assay: NFκB luciferase reporter assay; conditions: Homo sapiens, HeLa, 16 h, read-out: NFκB-luc HeLa cells EC50 (μM)
Description: A HeLa-NFκB luciferase reporter cell line (Wuxi Biology) was used to assess a group of PKC activator compounds for their ability to activate NFκB-driven transcription. […] One set of cells was assayed for luciferase activity (Promega, Cat #E1500) and the other set was assayed to determine the number of viable cells (for cell number normalization) using CellTiter-Glo (CTG) kit (Promega, Cat #G7570) according to manufacture's procedures. Normalized data (luciferase value/CTG value) were analyzed using GraphPad Prism5 to calculate EC50 for each compound (see Table 8).
To assess if activation of PKC is required for these compounds to activate NFκB, several PKC inhibitors including broad-spectrum and conventional PKC inhibitors were tested. In the assay described above, PKC inhibitors were added at the same time as the PKC activator compounds.

[5] = test system: Mino (Lymphoma); assay: Proliferation of Mino; type: cell-based; conditions: for IC50: Homo sapiens, MINO, read-out: IC50 Mino (Lymphoma)
Description: as §1, §2

[6] = molecular target: T1, C1b domain of human PKCδ (Homo sapiens, UniProt Q05655); assay: biochemical; type: binding; conditions: 3H-PDBu competition
T1 construct: Genes encoding C1b domains of human PKCα, δ, ε, θ, and PKD1 (PKCμ) were synthesized; made in house; host or cells: E. coli BL21(DE3)
Description: Compounds described in this disclosure were tested for binding affinity to C1b domain of PKC isoforms. Compound binding affinity to C1b domain of PKC isoforms was derived from competitive binding assay using radioactive tracer ^3H-PDBu and recombinant GST-C1b or full-length of human PKC proteins based on modified procedures from Methods in Molecular Biology, vol.
Genes encoding C1b domains of human PKCα, δ, ε, θ, and PKD1 (PKCμ) were synthesized and inserted into pGEX-2TK or pGEX-4T1 vectors for expression and production of GST-C1b proteins in E. coli BL21(DE3) via IPTG induction. The target proteins were purified by glutathione sepharose 4B and followed by ion exchange chromatography if needed to achieve purity >70%. Aliquots of the purified proteins were stored at −80 degree for binding assay (storage buffer: 20 mM Tris pH 8.0, 200 mM NaCl, 10% glycerol, 1 mM DTT).
The plate was incubated at 37° C. on a shaker at 300 rpm for 10 minutes and then put on ice for 20 minutes. […] The bottom of the filter plate was sealed and 50 μL of MicroScint-20 (PerkinElmer) cocktail was added to each well. ^3H-PDBu trapped in each well was counted using PerkinElmer MicroBeta2 Reader. Data were analyzed using GraphPad Prism5 with the model “log(inhibitor) vs. response-variable slope” to fit the IC50, and then IC50 was transformed to Ki using Cheng-Prusoff equation: Ki=IC50/(1+added radio ligand/Kd). Kd is the binding affinity of each protein preparation to ^3H-PDBu, determined experimentally.

T1 sequence (Q05655 230-280 limits assumed): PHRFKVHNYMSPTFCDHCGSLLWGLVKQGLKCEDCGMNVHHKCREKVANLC

CC1=C[C@H]2[C@@]3(O)[C@H](C)C[C@]4(OC(=O)CCc5ccc(C(F)(F)F)cc5)[C@H]([C@@H]3C=C(CO)C[C@]2(O)C1=O)C4(C)C
ratio (IC50 of K101)/(IC50 of compound) HL-60 [1]: 72 | IC50 [1]: 1 to 10 nM | ratio (IC50 of K101)/(IC50 of compound) Namalwa [2]: 13.8 | IC50 [2]: 1 to 10 nM | IC50 ([3]; Homo sapiens, A549, 96 h): 0.01 to 0.03 µM | EC50 [4]: 0.01 to 0.03 µM | ratio (IC50 of K101)/(IC50 of compound) Mino [5]: 75 | IC50 [5]: < 1 nM

CC1=C[C@H]2[C@@]3(O)[C@H](C)C[C@]4(OC(=O)C5CC6(CNC6)C5)[C@H]([C@@H]3C=C(CO)C[C@]2(O)C1=O)C4(C)C
IC50 ([3]; Homo sapiens, A549, 96 h): > 30 µM

CCCC[C@H](N)C(=O)O[C@@]12C[C@@H](C)[C@@]3(O)[C@@H](C=C(CO)C[C@]4(O)C(=O)C(C)=C[C@@H]34)[C@@H]1C2(C)C
Ki [6]: 10 to 30 nM | IC50 ([3]; Homo sapiens, A549, 96 h): 0.6 to 1 µM

CC1=C[C@H]2[C@@]3(O)[C@H](C)C[C@]4(OC(=O)CCc5c[nH]c6ncccc56)[C@H]([C@@H]3C=C(CO)C[C@]2(O)C1=O)C4(C)C
IC50 ([3]; Homo sapiens, A549, 96 h): 2 to 5 µM

CC1=C[C@H]2[C@@]3(O)[C@H](C)C[C@]4(OC(=O)CCc5cnn(C)c5)[C@H]([C@@H]3C=C(CO)C[C@]2(O)C1=O)C4(C)C
IC50 ([3]; Homo sapiens, A549, 96 h): 2 to 5 µM

CC1=C[C@H]2[C@@]3(O)[C@H](C)C[C@]4(OC(=O)CCCc5ccccc5)[C@H]([C@@H]3C=C(CO)C[C@]2(O)C1=O)C4(C)C
ratio (IC50 of K101)/(IC50 of compound) HL-60 [1]: 32.7 | IC50 [1]: 10 to 30 nM | ratio (IC50 of K101)/(IC50 of compound) Namalwa [2]: 8.63 | IC50 [2]: 1 to 10 nM | IC50 ([3]; Homo sapiens, A549, 96 h): 0.01 to 0.03 µM | EC50 [4]: 0.01 to 0.03 µM | ratio (IC50 of K101)/(IC50 of compound) Mino [5]: 37.5 | IC50 [5]: 1 to 10 nM

CC1=C[C@H]2[C@@]3(O)[C@H](C)C[C@]4(OC(=O)[C@@H](N)CC5CCC5)[C@H]([C@@H]3C=C(CO)C[C@]2(O)C1=O)C4(C)C
IC50 ([3]; Homo sapiens, A549, 96 h): 1 to 2 µM

CC1=C[C@H]2[C@@]3(O)[C@H](C)C[C@]4(OC(=O)[C@@H](N)CCS(C)(=O)=O)[C@H]([C@@H]3C=C(CO)C[C@]2(O)C1=O)C4(C)C
IC50 ([3]; Homo sapiens, A549, 96 h): > 30 µM

CC1=C[C@H]2[C@@]3(O)[C@H](C)C[C@]4(OC(=O)[C@@H](N)CC(C)(C)C)[C@H]([C@@H]3C=C(CO)C[C@]2(O)C1=O)C4(C)C
Ki [6]: 10 to 30 nM | IC50 ([3]; Homo sapiens, A549, 96 h): 0.2 to 0.6 µM

CC1=C[C@H]2[C@@]3(O)[C@H](C)C[C@]4(OC(=O)[C@@H](N)C5Cc6ccccc6C5)[C@H]([C@@H]3C=C(CCl)C[C@]2(O)C1=O)C4(C)C
IC50 ([3]; 96 hours, CellTiter Glo): 0.06 to 0.1 µM

CC1=C[C@H]2[C@@]3(O)[C@H](C)C[C@]4(OC(=O)[C@@H](N)CC5CC5)[C@H]([C@@H]3C=C(CO)C[C@]2(O)C1=O)C4(C)C
Ki [6]: 60 to 100 nM | IC50 ([3]; Homo sapiens, A549, 96 h): 2 to 5 µM

CC1=C[C@H]2[C@@]3(O)[C@H](C)C[C@]4(OC(=O)[C@@H](N)CC5CCCC5)[C@H]([C@@H]3C=C(CO)C[C@]2(O)C1=O)C4(C)C
IC50 ([3]; Homo sapiens, A549, 96 h): 0.1 to 0.2 µM

CC1=C[C@H]2[C@@]3(O)[C@H](C)C[C@]4(OC(=O)CCCCCCCCCCC(=O)O)[C@H]([C@@H]3C=C(CO)C[C@]2(O)C1=O)C4(C)C
IC50 ([3]; Homo sapiens, A549, 96 h): 10 to 30 µM

CC1=C[C@H]2[C@@]3(O)[C@H](C)C[C@]4(OC(=O)[C@H](N)CC5CCCCC5)[C@H]([C@@H]3C=C(CO)C[C@]2(O)C1=O)C4(C)C
Ki [6]: 10 to 30 nM | IC50 ([3]; Homo sapiens, A549, 96 h): 0.2 to 0.6 µM
